Reference: US12617831B2 (UNIVERSITE D'ANGERS, priority 2019, dated 2026)
Ends that are not written are not given here.

Legend:
[1] = system: MC3T3-E1 subclone 4 cells; type: cell-based, murine; settings: for Interpretation of combination index on collagen maturity at EC50: 69 pM; for Interpretation of combination index on collagen maturity at EC50 / Interpretation of combination index on collagen maturity at […] EC50: t-test vs additivity 1.0±0.15; for Interpretation of combination index on collagen maturity at […] EC50: 100 pM; for Emax for dose-effect curves on collagen maturity: MC3T3-E1, day 14; for effect on collagen maturity index: MC3T3-E1, vs cultures without peptide (FIG. 20); for Cl at […] EC50 (combination index on collagen maturity): at […] mean EC50 of GIP and GLP-2, 100 pM; for Cl at […] EC50 (combination index on collagen maturity) / Cl at EC50 (combination index on collagen maturity): Chou & Talalay, mean ± SD; for Cl at EC50 (combination index on collagen maturity): at mean EC50 of GIP and GLP-2, 69 pM
Method: Briefly, MC3T3-E1 subclone 4 cells have been grown and propagated in α-MEM supplemented with 5% fetal bovine serum (FBS), 5% bovine calf serum (BCS), 100 U/mL penicillin, and 100 μg/mL streptomycin in a humidified atmosphere enriched with 5% CO2 at 37° C. […] This day was considered as day 1. The differentiation medium was replenished every two days. […] Cultures were rinsed at least six times with milliQ water, fixed in absolute ethanol, scrapped off the culture dish and transferred onto BaF2 windows where they were air-dried. Integrity of the collagen extracellular matrix was verified by comparing the obtained Fourier transform infrared spectrum with those of commercial collagen. Spectral analysis was performed using a Bruker Vertex 70 spectrometer (Bruker optics, Ettlingen, Germany) interfaced with a Bruker Hyperion 3000 infrared microscope equipped with a standard single element Mercury Cadmium Telluride (MCT) detector. Calibration of the infrared spectrometer is done once a week with a polystyrene film standard (Bruker optics). Infrared spectra were recorded at a resolution of 4 cm^-1, with an average of 32 scans in transmission mode. Background spectral images were collected under identical conditions from the same BaF2 windows at the beginning and end of each experiment to ensure instrument stability. At least 5 spectra were acquired for each condition and analyzed with a lab-made routine script (version 2.0) in Matlab R2016b (The Mathworks, Natick, MA). […] For GIP and GLP-2 dataset, the inventors used the collagen maturity data previously acquired and analyzed. First of all, collagen maturity obtained in control cultures, i.e. in the absence of double GIP/GLP-2 analogues, were averaged and subtracted to the all dataset. […] For each concentration of peptide, the mean, SD and number of events were computed. […] The GraphPad Prism analysis consisted in: […] Statistical Analysis […] Data are represented as mean±SD.

Murine Raw 264.7 cells = type: cell-based; settings: for Emax, maximum inhibitory effect on osteoclastogenesis: Raw 264.7, * data obtained in previous experiments; for Cl at EC50 of GIP and GLP-2 (combination index for osteoclastogenesis): at 36.8 pM, Chou & Talalay; for Interpretation of combination index for osteoclastogenesis: at EC50 of GIP and GLP-2, 36.8 pM; for IC50 computed from curve fitting of osteoclastogenesis vs. peptide concentration: Raw 264.7, RANKL 10 ng/ml, 110 h, * values determined from previous experiments
Method: Murine Raw 264.7 cells were grown and expanded in propagation medium containing Dulbecco's modified Eagle medium (DMEM-Gibco) supplemented with 10% fetal bovine serum (FBS-Lonza), 100 U/mL penicillin and 100 μg/mL streptomycin (Gibco) in a humidified atmosphere enriched with 5% CO2 at 37° C. The first passage after thawing Raw 264.7 cells was considered as passage 1. Cells were used up to passage 8. […] Cultures were rinsed three times in distilled water and the residual activity was inhibited by 4% NaF (Sigma-Aldrich) for 30 min. Cells were then rinsed in distilled water and allowed to dry. TRAcP positive cells, with more than three nuclei, were identified as osteoclasts. The number of newly generated osteoclasts was assessed using light microscopic examination by a histologist that was blinded to the treatment intervention. […] For each concentration of peptide, the mean, SD and number of events were computed.

Murine MC3T3-E1 cells = experiment: Collagen maturity assay in MC3T3-E1 cultures (Example 2); type: cell-based; settings: MC3T3-E1 cultures (FIGS. 5-7)
Method: At confluence, the propagation medium was replaced by the differentiation medium containing αMEM supplemented with 5% FBS, 5% bovine calf serum, 100 U/mL penicillin, 100 μg/mL streptomycin, 50 μg/ml ascorbic acid and various concentrations of analogues. This day was considered as day 1. The differentiation medium was replenished every two days. […] Cultures were rinsed at least six times with milliQ water, fixed in absolute ethanol, scrapped off the culture dish and transferred onto BaF2 windows where they were air-dried. Integrity of the collagen extracellular matrix was verified by comparing the obtained Fourier transform infrared spectrum with those of commercial collagen. Spectral analysis was performed using a Bruker Vertex 70 spectrometer (Bruker optics, Ettlingen, Germany) interfaced with a Bruker Hyperion 3000 infrared microscope equipped with a standard single element Mercury Cadmium Telluride (MCT) detector. Infrared spectra were recorded at a resolution of 4 cm^−1, with an average of 32 scans in transmission mode. Background spectral images were collected under identical conditions from the same BaF2 windows at the beginning and end of each experiment to ensure instrument stability. At least 20 spectra were acquired for each condition and analyzed with a lab-made routine script in Matlab R2016b (The Mathworks, Natick, MA).

Compound: CC[C@H](C)[C@H](NC(=O)[C@H](Cc1ccccc1)NC(=O)[C@H](CC(=O)O)NC(=O)[C@H](CCCNC(=N)N)NC(=O)[C@H](C)NC(=O)[C@H](C)NC(=O)[C@H](CC(C)C)NC(=O)[C@H](CC(N)=O)NC(=O)[C@H](CC(=O)O)NC(=O)[C@H](CC(C)C)NC(=O)[C@@H](NC(=O)[C@@H](NC(=O)[C@H](CO)NC(=O)[C@H](Cc1ccc(O)cc1)NC(=O)[C@H](CC(=O)O)NC(=O)[C@H](CO)NC(=O)[C@@H](NC(=O)[C@H](Cc1ccccc1)NC(=O)[C@@H](NC(=O)CNC(=O)[C@H](CC(=O)O)NC(=O)[C@H](C)NC(=O)[C@@H](N)Cc1c[nH]cn1)[C@@H](C)O)[C@@H](C)CC)[C@@H](C)O)[C@@H](C)CC)C(=O)N[C@@H](CC(N)=O)C(=O)N[C@@H](Cc1c[nH]c2ccccc12)C(=O)N[C@@H](CC(C)C)C(=O)N[C@H](C(=O)N[C@@H](CCC(N)=O)C(=O)N[C@H](C(=O)N[C@@H](CCCCN)C(=O)N[C@H](C(=O)N[C@H](C(=O)N[C@@H](CC(=O)O)C(N)=O)[C@@H](C)O)[C@@H](C)CC)[C@@H](C)O)[C@@H](C)CC [Co-3]
- EC50 [1]: 19.4 pM
- Interpretation of combination index on collagen maturity at EC50 [1]: Additive (CI 0.85-1.15: additive)
- Interpretation of combination index on collagen maturity at […] EC50 [1]: Additive (CI 0.85-1.15: additive)
- Emax for dose-effect curves on collagen maturity [1]: 121.8%
- effect on collagen maturity index [1]: very modest
- Cl at […] EC50 (combination index on collagen maturity) [1]: 1.79 ± 2.20
- Cl at EC50 (combination index on collagen maturity) [1]: 1.29 ± 1.65
- Emax, maximum inhibitory effect on osteoclastogenesis (Murine Raw 264.7 cells): 37.88%
- Cl at EC50 of GIP and GLP-2 (combination index for osteoclastogenesis) (Murine Raw 264.7 cells): 48.00
- Interpretation of combination index for osteoclastogenesis (Murine Raw 264.7 cells): Very strong antagonism (CI>10: very strong antagonism)

Compound: CC[C@H](C)[C@H](NC(=O)[C@H](Cc1ccccc1)NC(=O)[C@H](CC(=O)O)NC(=O)[C@H](CCCNC(=N)N)NC(=O)[C@H](C)NC(=O)[C@H](C)NC(=O)[C@H](CC(C)C)NC(=O)[C@H](CC(N)=O)NC(=O)[C@H](CC(=O)O)NC(=O)[C@H](CC(C)C)NC(=O)[C@@H](NC(=O)[C@@H](NC(=O)[C@H](CO)NC(=O)[C@H](Cc1ccc(O)cc1)NC(=O)[C@H](CC(=O)O)NC(=O)[C@H](CO)NC(=O)[C@@H](NC(=O)[C@H](Cc1ccccc1)NC(=O)[C@@H](NC(=O)CNC(=O)[C@H](CC(=O)O)NC(=O)[C@H](C)NC(=O)[C@@H](N)Cc1c[nH]cn1)[C@@H](C)O)[C@@H](C)CC)[C@@H](C)O)[C@@H](C)CC)C(=O)N[C@@H](CC(N)=O)C(=O)N[C@@H](Cc1c[nH]c2ccccc12)C(=O)N[C@@H](CC(C)C)C(=O)N[C@H](C(=O)N[C@@H](CCC(N)=O)C(=O)N[C@H](C(=O)N[C@@H](CCCCN)C(=O)NCC(=O)N[C@@H](CCCCN)C(=O)N[C@@H](CCCCN)C(N)=O)[C@@H](C)O)[C@@H](C)CC [Co-19]
- EC50 [1]: 22.9 pM
- Interpretation of combination index on collagen maturity at EC50 [1]: Additive (CI 0.85-1.15: additive)
- Interpretation of combination index on collagen maturity at […] EC50 [1]: Additive (CI 0.85-1.15: additive)
- Emax for dose-effect curves on collagen maturity [1]: 118.1%
- effect on collagen maturity index [1]: very modest
- Cl at […] EC50 (combination index on collagen maturity) [1]: 389.0 ± 864
- Cl at EC50 (combination index on collagen maturity) [1]: 277.7 ± 617.4
- EC50 (Murine Raw 264.7 cells): 32.4 pM
- IC50 computed from curve fitting of osteoclastogenesis vs. peptide concentration (Murine Raw 264.7 cells): 32.4 pM
- Emax, maximum inhibitory effect on osteoclastogenesis (Murine Raw 264.7 cells): 62.36%
- Cl at EC50 of GIP and GLP-2 (combination index for osteoclastogenesis) (Murine Raw 264.7 cells): 1.94
- Interpretation of combination index for osteoclastogenesis (Murine Raw 264.7 cells): Antagonism (CI 1.45-3.3: antagonism)

Compound: CC[C@H](C)[C@H](NC(=O)[C@H](CO)NC(=O)[C@H](CCSC)NC(=O)[C@H](CC(=O)O)NC(=O)[C@H](CO)NC(=O)CNC(=O)[C@H](Cc1ccccc1)NC(=O)[C@H](CO)NC(=O)CNC(=O)[C@H](CCC(=O)O)NC(=O)CNC(=O)[C@@H](N)Cc1c[nH]cn1)C(=O)N[C@@H](C)C(=O)N[C@@H](CC(C)C)C(=O)N[C@@H](CC(=O)O)C(=O)N[C@@H](CCCCN)C(=O)N[C@@H](CC(C)C)C(=O)N[C@@H](C)C(=O)N[C@@H](C)C(=O)N[C@@H](CCCNC(=N)N)C(=O)N[C@@H](CC(=O)O)C(=O)N[C@@H](Cc1ccccc1)C(=O)N[C@H](C(=O)N[C@@H](CC(N)=O)C(=O)N[C@@H](Cc1c[nH]c2ccccc12)C(=O)N[C@@H](CC(C)C)C(=O)N[C@@H](CC(C)C)C(=O)N[C@@H](CCC(N)=O)C(=O)N[C@H](C(=O)N[C@@H](CCCCN)C(=O)N[C@H](C(=O)N[C@H](C(=O)N[C@@H](CC(=O)O)C(=O)NCC(=O)N[C@@H](C)C(=O)N[C@@H](C)C(=O)N[C@@H](CC(=O)O)C(=O)N[C@@H](CC(=O)O)C(=O)N[C@@H](CC(=O)O)C(=O)N[C@@H](CC(=O)O)C(=O)N[C@@H](CC(=O)O)C(=O)N[C@@H](CC(=O)O)C(N)=O)[C@@H](C)O)[C@@H](C)CC)[C@@H](C)O)C(C)C [GL-0001-Tag]
- profile of collagen maturity versus concentration (Murine MC3T3-E1 cells): biphasic profile

Compound: CC[C@H](C)[C@H](NC(=O)[C@H](CO)NC(=O)[C@H](CCSC)NC(=O)[C@H](CC(=O)O)NC(=O)[C@H](CO)NC(=O)[C@@H](NC(=O)[C@H](Cc1ccccc1)NC(=O)[C@H](CO)NC(=O)CNC(=O)[C@H](CCC(=O)O)NC(=O)CNC(=O)[C@@H](N)Cc1c[nH]cn1)C(C)C)C(=O)N[C@H](C(=O)N[C@@H](CC(C)C)C(=O)N[C@@H](CC(=O)O)C(=O)N[C@@H](CCCCN)C(=O)N[C@@H](CC(C)C)C(=O)N[C@@H](C)C(=O)N[C@@H](C)C(=O)N[C@@H](CCCNC(=N)N)C(=O)N[C@@H](CC(=O)O)C(=O)N[C@@H](Cc1ccccc1)C(=O)N[C@H](C(=O)N[C@@H](CC(N)=O)C(=O)N[C@@H](Cc1c[nH]c2ccccc12)C(=O)N[C@@H](CC(C)C)C(=O)N[C@@H](CC(C)C)C(=O)N[C@@H](CCC(N)=O)C(=O)N[C@H](C(=O)N[C@@H](CCCCN)C(N)=O)[C@@H](C)O)C(C)C)C(C)C [GL-0002]
- profile of collagen maturity versus concentration (Murine MC3T3-E1 cells): biphasic profile

Compound: CSCC[C@H](NC(=O)[C@H](CC(=O)O)NC(=O)[C@H](CO)NC(=O)[C@@H](NC(=O)[C@H](Cc1ccccc1)NC(=O)[C@H](CO)NC(=O)CNC(=O)[C@H](CCC(=O)O)NC(=O)CNC(=O)[C@@H](N)Cc1c[nH]cn1)C(C)C)C(=O)N[C@@H](CO)C(=O)N[C@H](C(=O)N[C@H](C(=O)N[C@@H](CC(C)C)C(=O)N[C@@H](CC(=O)O)C(=O)N[C@@H](CCCCN)C(=O)N[C@@H](CC(C)C)C(=O)N[C@@H](C)C(=O)N[C@@H](C)C(=O)N[C@@H](CCCNC(=N)N)C(=O)N[C@@H](CC(=O)O)C(=O)N[C@@H](Cc1ccccc1)C(=O)N[C@H](C(=O)N[C@@H](CC(N)=O)C(=O)N[C@@H](Cc1c[nH]c2ccccc12)C(=O)N[C@@H](CC(C)C)C(=O)N[C@@H](CC(C)C)C(=O)N[C@@H](CCC(N)=O)C(=O)N[C@H](C(=O)N[C@@H](CCCCN)C(N)=O)[C@@H](C)O)C(C)C)C(C)C)C(C)C [GL-0004]
- profile of collagen maturity versus concentration (Murine MC3T3-E1 cells): biphasic profile

Compound: HAEGTFISDYSIAMDKLAARDFINWLIQTKITD-NH2 (C-terminus assumed) [Co-7]
- EC50 [1]: 8.6 ± 6.9 pM
- Interpretation of combination index on collagen maturity at EC50 [1]: Additive (CI 0.85-1.15: additive)
- Interpretation of combination index on collagen maturity at […] EC50 [1]: Antagonism (CI 1.45-3.3: antagonism)
- Emax for dose-effect curves on collagen maturity [1]: 115.6%
- effect on collagen maturity index [1]: very modest
- Cl at […] EC50 (combination index on collagen maturity) [1]: 2.30 ± 1.01
- Cl at EC50 (combination index on collagen maturity) [1]: 1.53 ± 1.10
- EC50 (Murine Raw 264.7 cells): 1480 pM
- IC50 computed from curve fitting of osteoclastogenesis vs. peptide concentration (Murine Raw 264.7 cells): 1480 pM
- Emax, maximum inhibitory effect on osteoclastogenesis (Murine Raw 264.7 cells): 58.05%
- Cl at EC50 of GIP and GLP-2 (combination index for osteoclastogenesis) (Murine Raw 264.7 cells): 271.28
- Interpretation of combination index for osteoclastogenesis (Murine Raw 264.7 cells): Very strong antagonism (CI>10: very strong antagonism)
